The text below walks through data of ChEMBL document CHEMBL1833788, “Selective water-soluble gelatinase inhibitor prodrugs” (J Med Chem, 2011).

The subject of data set [1] is Plasma. Kind of data set: Metabolic stability of the compound in human plasma at 10 mM after 2 mins by reversed-phase HPLC/UV analysis. In kind it is ADME, cell-free. The settings on record: 10000 µM.
A short description of data set [2]: Chemical stability of the compound in aqueous solution at 10 mg/ml by HPLC up to 2 hrs. In kind it is physicochemical. The settings on record: buffer.
Data set [3] is described as follows: Solubility of the compound in aqueous solution at 10 mg/ml by UV spectroscopy. In kind it is physicochemical.
The test system of data set [4] is Plasma. As to the kind of experiment: Half life in human plasma at 10 mM by reversed-phase HPLC/UV analysis. In kind it is ADME, cell-free. The note with it: 10000 µM.
Data set [5] deals with Blood. Kind of data set: Half life in human blood at 10 mM by reversed-phase HPLC/UV analysis. Type of data set: ADME, tissue-based. The note with it: 10000 µM.
For data set [6], the system named is Blood. Kind of data set: Prodrug conversion in human blood assessed as release of 4-[4-((Thiiran-2-yl)methylsulphonyl)phenoxy]benzamine at 10 mM after 30 mins by reversed-phase HPLC/UV analysis. Type of data set: ADME, tissue-based. The note with it: 0.5 h, 10000 µM.
The target in data set [7] is Matrix metalloproteinase-9 (Homo sapiens, UniProt P14780).
Sequence of Matrix metalloproteinase-9 (P14780 whole entry): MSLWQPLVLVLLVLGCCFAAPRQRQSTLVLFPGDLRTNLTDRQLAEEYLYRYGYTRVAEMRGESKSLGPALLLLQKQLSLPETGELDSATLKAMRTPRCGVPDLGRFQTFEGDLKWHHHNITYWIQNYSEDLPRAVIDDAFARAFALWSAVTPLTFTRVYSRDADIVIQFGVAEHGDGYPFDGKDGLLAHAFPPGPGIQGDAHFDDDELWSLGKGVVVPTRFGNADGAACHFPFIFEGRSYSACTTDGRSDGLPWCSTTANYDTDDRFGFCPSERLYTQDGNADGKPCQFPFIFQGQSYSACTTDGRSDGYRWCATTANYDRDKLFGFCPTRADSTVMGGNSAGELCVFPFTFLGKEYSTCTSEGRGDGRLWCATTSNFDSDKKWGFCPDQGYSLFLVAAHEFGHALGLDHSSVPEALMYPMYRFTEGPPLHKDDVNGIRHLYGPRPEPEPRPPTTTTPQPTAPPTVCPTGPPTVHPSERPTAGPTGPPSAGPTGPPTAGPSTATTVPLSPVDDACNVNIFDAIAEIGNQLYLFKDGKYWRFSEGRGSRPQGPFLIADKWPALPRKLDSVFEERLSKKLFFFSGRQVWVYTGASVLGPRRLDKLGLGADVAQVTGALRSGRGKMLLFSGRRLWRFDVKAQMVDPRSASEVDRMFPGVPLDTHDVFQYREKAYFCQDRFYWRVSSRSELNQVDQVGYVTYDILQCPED
Description: Inhibition of human recombinant MMP9 catalytic domain assessed as hydrolysis of MOCAcPLGLA2pr(Dnp)AR-NH2 by fluorescence spectrofluorometry
Data set [8] in a line: Chemical stability of the compound in aqueous solution at 10 mg/ml by HPLC after 1 month. In kind it is physicochemical. The settings on record: buffer, 730.5 h.
The test system of data set [9] is Liver microsomes. Kind of data set: Half life in human liver microsomes at 100 uM by reversed-phase HPLC/UV analysis. In kind it is ADME, Microsome. A general note: Liver microsomes are a subcellular fraction often used to study metabolism.
The test system of data set [10] is Salmonella typhimurium. Kind of data set: Induction of mutagenicity in Salmonella Typhimurium TA7001 to TA7006 at 1 mg/mL after 48 hrs by Ames assay in presence of rat liver S9 metabolic activation system. The settings on record: salmonella enterica subsp. enterica serovar typhimurium, s9, 48 h. In kind it is toxicity, organism-based. (In general: The Ames test uses bacterial strains that need an amino acid and regain growth without it when mutated back.)

Data set [11] concerns Liver microsomes. Kind of data set: Prodrug conversion in rat liver microsomes assessed as release of 2-amino-5-(4-(thiiran-2-ylmethylsulfonyl)phenoxy)phenol after 30 mins by HPLC/MS analysis. In kind it is ADME, Microsome. The note with it: 0.5 h.
A short description of data set [12]: Apparent intrinsic clearance in human liver microsomes. Type of data set: ADME, Microsome.
For data set [13], the system named is Salmonella typhimurium. As to the kind of experiment: Induction of mutagenicity in Salmonella Typhimurium TA7001 to TA7006 at 1 mg/mL after 48 hrs by Ames assay in absence of rat liver S9 metabolic activation system. Type of data set: toxicity, organism-based. The settings on record: salmonella enterica subsp. enterica serovar typhimurium.
Data set [14] has as its system Salmonella typhimurium. As to the kind of experiment: Induction of mutagenicity in Salmonella Typhimurium TA98 at 1 mg/mL after 48 hrs by Ames assay in presence of rat liver S9 metabolic activation system. The note with it: salmonella enterica subsp. enterica serovar typhimurium, s9, 48 h. In kind it is toxicity, organism-based.
The test system of data set [15] is Salmonella typhimurium. As to the kind of experiment: Induction of mutagenicity in Salmonella Typhimurium TA98 at 1 mg/mL after 48 hrs by Ames assay in absence of rat liver S9 metabolic activation system. In kind it is toxicity, organism-based. The settings on record: salmonella enterica subsp. enterica serovar typhimurium, s9, 48 h.
Data set [16] has as its system Liver. Kind of data set: Half life in mouse liver microsomes at 100 uM by reversed-phase HPLC/UV analysis. In kind it is ADME, Microsome.
The subject of data set [17] is Liver microsomes. As to the kind of experiment: Half life in rat liver microsomes at 100 uM by reversed-phase HPLC/UV analysis. In kind it is ADME, Microsome.
In data set [18] the test system is Liver microsomes. As to the kind of experiment: Prodrug conversion in rat liver microsomes assessed as release of 4-(4-{[(1-oxidothiiran-2-yl)methyl]sulfonyl}phenoxy)aniline after 30 mins by HPLC/MS analysis. In kind it is ADME, Microsome. The settings on record: 0.5 h.
In data set [19] the test system is Mus musculus. As to the kind of experiment: Prodrug conversion in C57B1/6 mouse assessed as N-(4-(4-(thiiran-2-ylmethylsulfonyl)phenoxy)phenyl)acetamide level in plasma at […], iv administered as single bolus dose after 7 to 8 mins by reversed-phase LC/MS analysis. The note with it: in vivo.
The test system of data set [20] is Mus musculus. As to the kind of experiment: Prodrug conversion in C57B1/6 mouse assessed as N-(4-(4-(thiiran-2-ylmethylsulfonyl)phenoxy)phenyl)acetamide level in plasma at […], iv administered as single bolus dose after 62 to 66 mins by reversed-phase LC/MS analysis. The note with it: in vivo.
Data set [21] relates to Mus musculus. As to the kind of experiment: Prodrug conversion in C57B1/6 mouse assessed as N-(4-(4-((Thiiran-2-ylmethyl)sulfonyl)phenoxy)phenyl) hydroxylamine level in urine at […], iv administered as single dose by reversed-phase LC/MS analysis. Type of data set: ADME, organism-based. The settings on record: in vivo.
For data set [22], the system named is Mus musculus. Kind of data set: Distribution half life in C57B1/6 mouse plasma assessed as N-(4-(4-(thiiran-2-ylmethylsulfonyl)phenoxy)phenyl)acetamide level at […], iv administered as single bolus dose. The note with it: in vivo. In kind it is ADME, organism-based.
The test system of data set [23] is Mus musculus. Kind of data set: Clearance in C57B1/6 mouse plasma assessed as parent compound level at […], iv administered as single bolus dose. The settings on record: in vivo. In kind it is ADME, organism-based.
Data set [24] deals with Mus musculus. As to the kind of experiment: Prodrug conversion in C57B1/6 mouse assessed as N-(4-(4-(thiiran-2-ylmethylsulfonyl)phenoxy)phenyl)acetamide level in plasma at […], iv administered as single bolus dose after 30 mins by reversed-phase LC/MS analysis. The settings on record: in vivo, 0.5 h.
For data set [25], the system named is Mus musculus. Kind of data set: AUC (0 to last) in C57B1/6 mouse plasma assessed as N-(4-(4-(thiiran-2-ylmethylsulfonyl)phenoxy)phenyl)acetamide level at […], iv administered as single bolus dose. In kind it is ADME, organism-based. The note with it: in vivo.
In data set [26] the test system is Mus musculus. As to the kind of experiment: Prodrug conversion in C57B1/6 mouse assessed as N-(4-(4-(thiiran-2-ylmethylsulfonyl)phenoxy)phenyl)acetamide level in plasma at […], iv administered as single bolus dose after 11 to 12 mins by reversed-phase LC/MS analysis. The note with it: in vivo.
Data set [27] concerns Mus musculus. As to the kind of experiment: Prodrug conversion in C57B1/6 mouse assessed as N-(4-(4-(thiiran-2-ylmethylsulfonyl)phenoxy)phenyl)acetamide level in plasma at […], iv administered as single bolus dose after 120 to 123 mins by reversed-phase LC/MS analysis. The settings on record: in vivo.
For data set [28], the system named is Mus musculus. Kind of data set: Terminal half life in C57B1/6 mouse plasma assessed as parent compound level at […], iv administered as single bolus dose. In kind it is ADME, organism-based. The settings on record: in vivo.
The test system of data set [29] is Mus musculus. As to the kind of experiment: AUC (0 to infinity) in C57B1/6 mouse plasma assessed as N-(4-(4-(thiiran-2-ylmethylsulfonyl)phenoxy)phenyl)acetamide level at […], iv administered as single bolus dose. The note with it: in vivo, BLD = below limit of detection. In kind it is ADME, organism-based.
Data set [30] deals with Mus musculus. As to the kind of experiment: Prodrug conversion in C57B1/6 mouse assessed as N-(4-(4-(thiiran-2-ylmethylsulfonyl)phenoxy)phenyl)acetamide level in plasma at […], iv administered as single bolus dose after 2 to 3 mins by reversed-phase LC/MS analysis. The note with it: in vivo.
The subject of data set [31] is Mus musculus. Kind of data set: AUC (0 to infinity) in C57B1/6 mouse plasma assessed as parent compound level at […], iv administered as single bolus dose. The note with it: in vivo. Type of data set: ADME, organism-based.
Data set [32] relates to Mus musculus. Kind of data set: Terminal half life in C57B1/6 mouse plasma assessed as N-(4-(4-(thiiran-2-ylmethylsulfonyl)phenoxy)phenyl)acetamide level at […], iv administered as single bolus dose. Type of data set: ADME, organism-based. The settings on record: in vivo, BLD = below limit of detection.
Data set [33] relates to Mus musculus. Kind of data set: Prodrug conversion in C57B1/6 mouse assessed as N-(4-(4-((Thiiran-2-ylmethyl)sulfonyl)phenoxy)phenyl) hydroxylamine level in plasma at […], iv administered as single dose by reversed-phase LC/MS analysis. In kind it is ADME, organism-based. The note with it: in vivo.
Data set [34] deals with Mus musculus. As to the kind of experiment: Volume of distribution in C57B1/6 mouse plasma assessed as parent compound level at […], iv administered as single bolus dose. In kind it is ADME, organism-based. The settings on record: in vivo.
The species named for data set [35] is Mus musculus. Kind of data set: Hepatic blood flow in mouse. Type of data set: ADME, organism-based, Liver.
Data set [36] concerns Liver microsomes. Kind of data set: Prodrug conversion in rat liver microsomes assessed as release of 4-(4-((S)-2-amino-5-guanidinopentanamido)phenoxy)benzenesulfinic acid after 60 mins by HPLC/MS analysis. Type of data set: ADME, Microsome. The settings on record: 1 h.
The subject of data set [37] is Liver microsomes. Kind of data set: Prodrug conversion in rat liver microsomes assessed as release of N-(4-(4-(thiiran-2-ylmethylsulfonyl)phenoxy)phenyl)acetamide after 60 mins by HPLC/MS analysis. Type of data set: ADME, Microsome. The note with it: 1 h.
Data set [38] is filed under the species Rattus norvegicus. Kind of data set: Hepatic blood flow in rat. Type of data set: ADME, organism-based, Liver.
The species named for data set [39] is Homo sapiens. Kind of data set: Hepatic blood flow in human. In kind it is ADME, organism-based, Liver.
The test system of data set [40] is Liver microsomes. Kind of data set: Prodrug conversion in rat liver microsomes assessed as release of 4-(4-aminophenoxy)benzenesulfinic acid after 60 mins by HPLC/MS analysis. In kind it is ADME, Microsome. The note with it: 1 h.

Bounds are passed on as bounds.

The term solubility denotes how much of the substance goes into solution per volume. Low values mean a poorly soluble substance, high ones a readily soluble substance. Turning to `N=C(N)NCCC[C@H](NC(=O)[C@@H](N)CCCNC(=N)N)C(=O)Oc1ccc(Oc2ccc(S(=O)(=O)CC3CS3)cc2)cc1` (stereo partly specified), the Stability entry in [1] and in data set [2] was “Unstable” each time. In addition, the solubility in data set [3] is above 10000 µg/mL.
Broadly, the Ki is the equilibrium dissociation constant of an inhibitor or competing ligand from its target. Read a high Ki as a looser hold on the target. Take `N[C@@H](CCC(=O)O)C(=O)Nc1ccc(Oc2ccc(S(=O)(=O)CC3CS3)cc2)cc1` (stereo partly specified): the t1/2 is reported as 32.8 min in data set [4] and 27.9 min in data set [5]. Also, the Drug metabolism entry in [6] is “Active”. For the same molecule, the Ki in data set [7] stood at 4.3 µM. This molecule yielded a solubility in data set [3] above 10000 µg/mL. For the same molecule, the Stability entry in data set [8] is “Stable”.
Usually CLint scaled stands for a measure of how fast metabolising enzymes remove a compound, apart from limits set by blood flow. As for `Nc1ccc(Oc2ccc(S(=O)(=O)CC3CS3)cc2)cc1` (stereo unspecified), the t1/2 in data set [9] is reported as above 60 min; in data set [16], 27.3 min; in data set [17], 23.4 min. For the same molecule, the Activity entry in [10], in data set [13], in data set [14] and in data set [15] was “Non-toxic” in each case. In addition, the Drug metabolism result in data set [11] and in data set [18] was “Active” throughout. Further, the CLint scaled in [12] is below 10 mL/min/kg.
As usually defined, the AUC is the area under the concentration-time curve, a measure of exposure. In general, Vd refers to a proportionality between amount in the body and measured concentration, not a real space. Turning to `Cl.Nc1ccc(Oc2ccc(S(=O)(=O)CC3CS3)cc2)cc1` (stereo unspecified), the Drug metabolism in data set [19] is 0.192 µM; in data set [20], 0.0273 µM; in data set [21], “Not Active”; in [24] it was 0.0958 µM; in data set [26], 0.15 µM; in [27] it was 0.00277 µM. Further, the values for the Drug metabolism in [30] and in [33] were 0.197 µM and “Not Active”, respectively. Moreover, the alphat1/2 in data set [22] was determined as 5.1 min. In addition, the CL in [23] amounted to 87.5 mL/min/kg. Besides, the AUClast in data set [25] is 7.71 µM·min. In addition, the “beta t1/2” value is given as 21 min in data set [28] and “BLD” in data set [32]. Besides, the AUC result is “BLD” in data set [29] and 221 µM·min in data set [31]. The Vd in data set [34] was found to be 0.532 L/kg.
Regarding `N=C(N)NCCC[C@H](N)C(=O)Oc1ccc(Oc2ccc(S(=O)(=O)CC3CS3)cc2)cc1` (stereo partly specified), the Stability result in data set [1] and in data set [2] was “Unstable” each time. Moreover, the solubility in data set [3] is above 10000 µg/mL.
Take `N=C(N)NCCC[C@H](N)C(=O)Nc1ccc(Oc2ccc(S(=O)(=O)CC3CS3)cc2)cc1` (stereo partly specified): the t1/2 in data set [4] is given as 29.5 min; in data set [5] it was 25.4 min; in data set [9], above 60 min; in [16], above 60 min; in data set [17], 59.3 min. The QH in [35] is 86 mL/min/kg; in data set [38] it was 66 mL/min/kg; in data set [39], 21 mL/min/kg. Moreover, the Drug metabolism result is given as “Active” in data set [36], “Active” in data set [37], “tde” in data set [6] (TDE = time-dependent effect) and “Active” in data set [40]. Besides, the Activity entry in data set [10], in data set [13], in data set [14] and in data set [15] was “Non-toxic” each time. This molecule returned a solubility in data set [3] above 10000 µg/mL. Besides, the Stability entry in data set [8] is recorded as “Stable”.
